Data on ten compounds can be found in ChEMBL document CHEMBL1201862, “PubChem BioAssay data set” (2004).

The source made the active and inactive calls. A value given as a limit tells only on which side of the number the result lay.

By CC50 is commonly meant the concentration at which the toxic effect on the cells reaches its halfway point. What is called AC50 is the concentration giving half of the maximal activity seen.

The test system of assay [1] is Vero. As to the kind of experiment: viability of Vero cells under compound – cytotoxicity control for flavivirus capping enzyme inhibitors (AID 588742). The class given is functional. The note with it: Chlorocebus sabaeus.
Assay [2] in a line: Trypanosoma cruzi growth suppression in host cells – NIH3T3 host cells, beta-gal luminescence, confirmation (AID 2044).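 Also: intracellular parasites grown in NIH/3T3 mouse fibroblasts as host cells; luminescent beta-galactosidase reporter signal from transgenic T. cruzi replicating inside host cells; inhibitors lower the luminescence signal.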 The class given is functional, cell-based.
The nature of assay [3]: NIH3T3 cell viability loss – ATP luminescence, mouse fibroblasts, counter-screen, dose response (AID 2010).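 Also: cells exposed to compound for about 90 hours before reading.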 The assay is classed as functional, cell-based. A general note: The purpose of a counterscreen is to sort out artefacts and off-target activity.
The nature of assay [4]: alpha-synuclein stem-loop luciferase translation blockers – H4 neuroglioma cells, luminescence, confirmation (AID 1988). The assay is classed as functional, cell-based.
Assay [5] can be described thus: Luminescence Cell-Based Dose Response HTS to Identify Inhibitors of 5'UTR Stem-Loop Driven Prion Protein mRNA Translation in H4 Neuroglioblastoma Cells. [Related pubchem assays: 1827 (Project Summary), 1813 (Primary HTS)]. The assay is classed as functional.
The target in assay [6] is 72 kDa type IV collagenase (Homo sapiens, UniProt P08253). As to the kind of experiment: Dose Response validation of uHTS RPN11 inhibitor hits using a MMP-2 Fluorescence assay. The assay is classed as functional.
Assay [7] deals with Vero. As to the kind of experiment: cells. The class given is functional. The note with it: Chlorocebus sabaeus.
Assay [8] concerns the target 26S proteasome non-ATPase regulatory subunit 14 (Homo sapiens, UniProt O00487). As to the kind of experiment: inhibition of proteasome subunit RPN11 – biochemical, fluorescence polarization, uHTS hits, confirmation (AID 602368). The class given is functional. (In fluorescence polarisation assays a small probe gives low polarisation when free and higher when bound to something large.)

Assay [9] concerns the target Prothrombin (Bos taurus, UniProt P00735). As to the kind of experiment: thrombin protease inhibitors – biochemical, fluorescence polarization, uHTS hits, dose response (AID 602369). The class given is functional.
Assay [10] addresses T1, Ubiquitin-conjugating enzyme E2 N (Homo sapiens, UniProt P61088).
T1 sequence (P61088 whole entry): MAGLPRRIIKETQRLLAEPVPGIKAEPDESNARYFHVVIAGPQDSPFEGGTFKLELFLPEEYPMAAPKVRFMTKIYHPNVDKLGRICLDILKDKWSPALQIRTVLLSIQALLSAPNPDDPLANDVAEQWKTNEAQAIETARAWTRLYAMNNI
The assay is classed as functional.

Assay [11] can be described thus: luciferase reporter signal suppression in cells – H4 neuroglioma cells, luminescence, dose response (AID 1990). The class given is functional, cell-based. (In general: Reporter assays use an easily measured gene product as a stand-in for the process of interest.)
A short description of assay [12]: HEK-293T viability loss after treatment – luminescence, T-cell screen hits, cytotoxicity control for TCR NF-kB inhibitor project, dose response (AID 489026).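 Also: cells exposed to compound about 14 hours before the viability readout.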 The assay is classed as functional, cell-based.
Assay [13] deals with G-protein coupled receptor 55 (Homo sapiens, UniProt Q9Y2T6). The experiment in a line: inhibition of LPI-stimulated GPR55 beta-arrestin translocation – imaging, U2OS, beta-arrestin-GFP, LPI agonist, primary screen (AID 2013).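 Also: antagonist potency measured as reduced agonist-driven arrestin aggregation.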 The class given is functional.
Assay [14] addresses T2, Zinc finger protein mex-5 (Caenorhabditis elegans, UniProt Q9XUB2).
T2 sequence (Q9XUB2 whole entry): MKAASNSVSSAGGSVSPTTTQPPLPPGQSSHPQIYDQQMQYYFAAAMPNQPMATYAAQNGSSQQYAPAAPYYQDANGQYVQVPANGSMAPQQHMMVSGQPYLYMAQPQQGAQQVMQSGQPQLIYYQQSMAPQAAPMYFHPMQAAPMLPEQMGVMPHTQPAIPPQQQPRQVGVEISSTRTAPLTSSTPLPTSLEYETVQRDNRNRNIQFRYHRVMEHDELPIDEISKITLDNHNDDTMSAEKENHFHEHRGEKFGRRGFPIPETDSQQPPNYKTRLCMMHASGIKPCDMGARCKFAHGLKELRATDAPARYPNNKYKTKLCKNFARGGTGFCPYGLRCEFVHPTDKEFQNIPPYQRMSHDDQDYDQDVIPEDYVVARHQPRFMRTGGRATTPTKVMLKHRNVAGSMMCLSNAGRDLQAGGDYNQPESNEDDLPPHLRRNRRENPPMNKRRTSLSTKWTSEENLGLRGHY
The experiment in a line: potency of MEX-5 RNA-binding blockers – biochemical, C. elegans, fluorescence polarization, dose response (AID 1960).

For assay [15], the target named is T3, RNA-binding protein pos-1 (Caenorhabditis elegans, UniProt G5EF15).
T3 sequence (G5EF15 whole entry): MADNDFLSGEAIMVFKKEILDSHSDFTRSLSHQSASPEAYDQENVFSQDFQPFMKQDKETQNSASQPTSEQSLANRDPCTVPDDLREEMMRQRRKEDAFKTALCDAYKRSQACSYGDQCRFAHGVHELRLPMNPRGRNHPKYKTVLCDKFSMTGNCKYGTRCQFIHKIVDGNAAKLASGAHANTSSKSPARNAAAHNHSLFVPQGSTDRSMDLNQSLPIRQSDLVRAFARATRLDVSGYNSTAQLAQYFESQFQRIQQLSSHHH
As to the kind of experiment: disruptors of C. elegans POS-1 RNA interaction – biochemical, fluorescence polarization, dose response (AID 1964).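 Also: purified POS-1 fused to maltose binding protein made in E. coli; potency of compounds blocking POS-1 binding to fluorescent RNA.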

Assay [16] relates to HEK293. The experiment in a line: cells. The assay is classed as functional, cell-based. The following applies: Homo sapiens.
For assay [17], the target named is T4, Nuclear receptor subfamily 0 group B member 1 (Homo sapiens, UniProt P51843).
T4 sequence (P51843 whole entry): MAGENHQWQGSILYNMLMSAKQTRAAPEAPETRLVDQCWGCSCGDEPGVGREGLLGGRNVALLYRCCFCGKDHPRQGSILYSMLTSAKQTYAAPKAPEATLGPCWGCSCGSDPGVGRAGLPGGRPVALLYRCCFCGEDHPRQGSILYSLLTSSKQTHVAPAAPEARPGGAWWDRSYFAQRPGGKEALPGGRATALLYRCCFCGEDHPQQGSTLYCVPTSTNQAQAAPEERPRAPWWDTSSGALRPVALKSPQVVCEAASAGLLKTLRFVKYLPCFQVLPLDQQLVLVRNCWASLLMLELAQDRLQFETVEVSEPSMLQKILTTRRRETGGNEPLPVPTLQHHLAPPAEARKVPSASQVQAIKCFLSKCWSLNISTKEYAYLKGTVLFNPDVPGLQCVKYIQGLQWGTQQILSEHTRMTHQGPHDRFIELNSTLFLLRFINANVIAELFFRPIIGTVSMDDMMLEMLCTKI
As to the kind of experiment: Luminescence-based cell-based high throughput dose response assay for inhibitors of the orphan nuclear receptor subfamily 0, group B, member 1 (DAX1; NR0B1). [Related pubchem assays (depositor defined):AID504766, AID504790]. The class given is functional.

A short description of assay [18]: nonselective StAR promoter luciferase inhibitors – cell-based, luminescence, luciferase reporter, counter-screen for LRH-1 inverse agonist project, dose response (AID 651969). The assay is classed as functional.
Assay [19] concerns the target Steroidogenic factor 1 (Homo sapiens, UniProt Q13285). The experiment in a line: Counterscreen for inverse agonists of the liver receptor homolog-1 (LRH-1; NR5A2): Luminescence-based cell-based high throughput dose response assay to identify inverse agonists of the Steroidogenic Factor 1 Nuclear Receptor (SF1; NR5A1). The class given is functional.
The target in assay [20] is Nuclear receptor subfamily 5 group A member 2 (Homo sapiens, UniProt O00482). The assay is classed as functional, cell-based.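 Also: HEK293T cells transfected with LRH-1 and a StAR promoter luciferase reporter; potency for inhibitors that lower LRH-1 driven reporter light.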
Assay [21] in a line: blockers of CRF-binding protein–CRF-R2 complex – cell-based, uHTS hits, 384-well, dose response (AID 651639). The note with it: read-out: IC50_Mean. The assay is classed as functional, Homo sapiens.
Assay [22] concerns HEK293. The experiment in a line: cells. The assay is classed as functional, cell-based. The note with it: Homo sapiens. The source holds these as a separate data set.
Assay [23] concerns the target T5, Corticotropin-releasing factor receptor 2/Corticotropin-releasing factor-binding protein (Homo sapiens, UniProt P24387+Q13324).
T5 sequence (Q13324 whole entry): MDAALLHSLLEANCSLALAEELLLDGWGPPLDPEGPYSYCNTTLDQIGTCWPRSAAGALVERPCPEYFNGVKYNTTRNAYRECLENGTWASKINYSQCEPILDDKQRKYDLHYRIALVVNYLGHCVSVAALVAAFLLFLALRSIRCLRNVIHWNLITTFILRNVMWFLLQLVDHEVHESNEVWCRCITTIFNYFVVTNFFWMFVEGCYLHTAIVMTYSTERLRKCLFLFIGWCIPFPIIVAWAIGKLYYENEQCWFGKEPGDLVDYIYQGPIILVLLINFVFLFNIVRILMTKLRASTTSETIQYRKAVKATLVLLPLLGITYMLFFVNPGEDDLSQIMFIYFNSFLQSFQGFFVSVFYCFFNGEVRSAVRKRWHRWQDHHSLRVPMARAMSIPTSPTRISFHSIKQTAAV
T5 sequence (P24387 whole entry): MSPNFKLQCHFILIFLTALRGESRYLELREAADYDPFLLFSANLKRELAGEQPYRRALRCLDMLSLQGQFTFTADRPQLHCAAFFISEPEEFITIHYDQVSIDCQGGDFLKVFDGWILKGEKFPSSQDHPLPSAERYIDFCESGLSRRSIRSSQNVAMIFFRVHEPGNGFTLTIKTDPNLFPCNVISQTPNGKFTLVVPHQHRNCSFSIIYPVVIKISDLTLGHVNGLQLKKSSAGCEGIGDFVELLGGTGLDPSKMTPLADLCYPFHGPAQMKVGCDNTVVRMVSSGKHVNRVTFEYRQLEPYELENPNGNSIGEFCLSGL
As to the kind of experiment: activators of CRF receptor 2 with binding protein – uHTS hits, confirmation (AID 602473). The class given is functional. The note with it: read-out: EC50_Mean.

The test system of assay [24] is HEK293. The experiment in a line: NOD2 signaling inhibitors in MDP-stimulated cells, cell-based, uHTS, luminescence (AID 2001). The note with it: Homo sapiens. The class given is functional.
The target of assay [25] is T5, Corticotropin-releasing factor receptor 2/Corticotropin-releasing factor-binding protein. As to the kind of experiment: Dose Response confirmation of uHTS hits for small molecule antagonists of the CRF-binding protein and CRF-R2 receptor complex. The class given is functional. The note with it: read-out: IC50_Mean.
Assay [26] concerns HEK293. The experiment in a line: inhibition of NOD1-driven NF-kB reporter – cell-based, luminescence, uHTS, primary screen (AID 1578). The assay is classed as functional. The note with it: Homo sapiens.
Assay [27] has as its system HEK293. The experiment in a line: cells. The assay is classed as functional, cell-based. The note with it: Homo sapiens. This is another data set of the same source.
A short description of assay [28]: decrease of insulin promoter-GFP reporter – imaging, high-content screening, mouse beta cells (AID 1628). The assay is classed as functional. The note with it: MIN6.
The nature of assay [29]: MIN6 cell viability loss – mouse insulinoma, cytotoxicity control, dose response (AID 2122).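 Also: confirmatory high-throughput counterscreen run to flag cytotoxic compounds.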 The assay is classed as functional.
The test system of assay [30] is INS1. As to the kind of experiment: INS-1E survival protection against cytokine death – cell-based, luminescence, retest, dose response (AID 449756).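 Also: cell death triggered by IL-1 beta plus TNF-alpha plus IFN-gamma mixture; protective hits raise ATP signal compared with cytokine alone wells.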 The class given is functional. The following applies: Rattus norvegicus.

G-protein coupled receptor 55, sequence (Q9Y2T6 whole entry): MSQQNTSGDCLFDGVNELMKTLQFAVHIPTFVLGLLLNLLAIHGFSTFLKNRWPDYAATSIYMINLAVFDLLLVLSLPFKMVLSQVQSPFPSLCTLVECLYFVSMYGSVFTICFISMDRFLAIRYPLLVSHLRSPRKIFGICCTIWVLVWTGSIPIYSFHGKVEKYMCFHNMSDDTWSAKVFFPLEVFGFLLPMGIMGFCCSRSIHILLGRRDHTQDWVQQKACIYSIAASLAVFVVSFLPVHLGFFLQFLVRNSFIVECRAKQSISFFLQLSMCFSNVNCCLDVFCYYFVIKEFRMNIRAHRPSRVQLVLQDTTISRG
72 kDa type IV collagenase, sequence (P08253 whole entry): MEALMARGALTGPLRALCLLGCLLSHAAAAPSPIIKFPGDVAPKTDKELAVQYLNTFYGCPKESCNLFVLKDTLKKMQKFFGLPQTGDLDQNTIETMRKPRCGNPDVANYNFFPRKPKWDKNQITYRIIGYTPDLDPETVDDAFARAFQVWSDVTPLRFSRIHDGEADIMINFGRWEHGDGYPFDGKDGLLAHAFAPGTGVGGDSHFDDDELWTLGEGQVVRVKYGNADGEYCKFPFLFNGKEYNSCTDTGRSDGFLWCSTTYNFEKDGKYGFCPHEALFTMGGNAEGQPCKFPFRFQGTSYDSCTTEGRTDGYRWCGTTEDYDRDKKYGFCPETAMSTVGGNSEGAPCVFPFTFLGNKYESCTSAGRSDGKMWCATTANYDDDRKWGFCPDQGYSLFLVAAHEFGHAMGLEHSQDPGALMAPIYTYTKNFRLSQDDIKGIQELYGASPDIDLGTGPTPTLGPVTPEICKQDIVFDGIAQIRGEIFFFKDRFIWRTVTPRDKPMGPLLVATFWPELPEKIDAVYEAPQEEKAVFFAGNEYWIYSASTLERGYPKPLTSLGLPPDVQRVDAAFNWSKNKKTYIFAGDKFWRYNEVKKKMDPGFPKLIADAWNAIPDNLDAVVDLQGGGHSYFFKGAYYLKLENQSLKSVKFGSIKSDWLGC
Nuclear receptor subfamily 5 group A member 2, sequence (O00482 whole entry): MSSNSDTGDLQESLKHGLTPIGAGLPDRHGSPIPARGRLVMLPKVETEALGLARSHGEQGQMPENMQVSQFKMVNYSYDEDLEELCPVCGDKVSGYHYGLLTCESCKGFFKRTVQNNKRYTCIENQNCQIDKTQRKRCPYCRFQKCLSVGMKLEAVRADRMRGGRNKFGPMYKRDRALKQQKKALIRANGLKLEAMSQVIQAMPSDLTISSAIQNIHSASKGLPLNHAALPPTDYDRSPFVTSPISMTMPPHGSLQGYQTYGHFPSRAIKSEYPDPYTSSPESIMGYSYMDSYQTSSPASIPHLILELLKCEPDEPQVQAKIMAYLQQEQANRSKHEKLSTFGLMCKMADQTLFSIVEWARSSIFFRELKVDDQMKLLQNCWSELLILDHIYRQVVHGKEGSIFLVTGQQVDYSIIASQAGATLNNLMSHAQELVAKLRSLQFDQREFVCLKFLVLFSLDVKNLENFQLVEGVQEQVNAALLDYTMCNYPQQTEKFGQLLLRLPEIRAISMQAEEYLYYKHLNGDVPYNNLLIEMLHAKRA
Steroidogenic factor 1, sequence (Q13285 whole entry): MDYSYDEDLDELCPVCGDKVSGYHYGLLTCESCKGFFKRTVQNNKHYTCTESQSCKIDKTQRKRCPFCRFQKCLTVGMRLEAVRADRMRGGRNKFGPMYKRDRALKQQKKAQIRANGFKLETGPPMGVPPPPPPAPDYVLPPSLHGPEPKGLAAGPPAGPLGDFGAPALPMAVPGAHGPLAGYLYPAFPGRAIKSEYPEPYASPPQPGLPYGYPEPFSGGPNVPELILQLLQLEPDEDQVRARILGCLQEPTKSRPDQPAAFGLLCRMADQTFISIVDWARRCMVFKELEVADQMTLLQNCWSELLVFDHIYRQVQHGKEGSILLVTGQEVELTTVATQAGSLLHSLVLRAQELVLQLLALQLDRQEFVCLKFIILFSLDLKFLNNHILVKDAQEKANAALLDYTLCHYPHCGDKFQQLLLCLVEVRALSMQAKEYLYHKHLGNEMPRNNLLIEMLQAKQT
26S proteasome non-ATPase regulatory subunit 14, sequence (O00487 whole entry): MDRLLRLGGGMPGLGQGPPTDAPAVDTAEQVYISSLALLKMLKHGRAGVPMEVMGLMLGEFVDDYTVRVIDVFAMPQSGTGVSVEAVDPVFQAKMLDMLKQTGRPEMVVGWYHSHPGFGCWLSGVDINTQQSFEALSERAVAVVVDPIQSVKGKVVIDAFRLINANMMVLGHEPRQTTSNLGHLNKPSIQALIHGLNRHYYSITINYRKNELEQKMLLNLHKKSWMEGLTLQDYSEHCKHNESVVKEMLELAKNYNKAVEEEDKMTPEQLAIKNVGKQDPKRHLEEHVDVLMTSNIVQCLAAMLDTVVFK

For the compound `CN1CCN(S(=O)(=O)c2cccc(C(=O)Nc3sc4c(c3-c3nc5ccccc5[nH]3)CCCC4)c2)CC1`, in assay [1], the CC50 was > 40 µM (active). Further, the EC50 in assay [2] was 1.67 µM (active); in [3], > 60 µM (not active).

In the case of `CN1CCc2c(sc3c2C(=O)NC(c2cn(Cc4ccccc4)c4ccccc24)N3)C1` (stereo not given), the EC50 is 5.25 µM (active) in assay [4], 8.12 µM (active) in assay [5] and 8.71 µM (active) in assay [11]. The IC50 in assay [6] is > 100 µM (inactive); in [8], 23.4 µM (active); in assay [9], 16 µM (active); in assay [10], > 20 µM (inactive). Further, the half-maximal cytotoxic concentration (CC50) in [7] is 17.1 µM (active).

`Brc1ccc2c(c1)C(C1=NCCN1)c1ccccc1CS2` (stereo not given): in [12], the IC50 is > 80 µM (inactive).

Consider `COc1ccc(OC)c(N2C(=O)NC(=O)/C(=C/c3c(C)[nH]c4ccccc34)C2=O)c1`, for which, in [13], the IC50 is < 0.5 µM (active).

As to `COc1ccc(N2C(=O)NC(=O)/C(=C\c3cn(CC(=O)N4CCOCC4)c4ccccc34)C2=O)c(OC)c1`, the EC50 in assay [14] and in [15] was > 300 µM (not active) each time. In [13], the IC50 is 1.59 µM (active).

On to `O=C(CSc1nnc(Cc2cc(O)nc(O)n2)n1-c1ccc(F)cc1)N1CCCCC1`, for which the IC50 in assay [16] and in [17] was > 67.6 µM (inactive) throughout.

For `CCCc1nnc(SCC(=O)Nc2ccc(OC)cc2)o1`, the IC50 in [18] is 35.9 µM (inactive); in assay [19], 15.5 µM (inactive); in assay [20], 6.68 µM (active).

Regarding `C/C(=N\NC(=O)c1cc(Cl)ccc1O)c1ccc(Br)s1`, the IC50 in [21] was > 20 µM (inactive); in assay [22] it was > 20 µM (inactive); in [24], 6.21 µM (inactive); in [25], < 0.368 µM (active); in [27], 5.47 µM (active). Besides, the EC50 in [23] is > 53 µM (inactive); in assay [26], 1.93 µM (active).

With `Cc1[nH]n(C2=NCCS2)c(=O)c1N=Nc1cccc(C(F)(F)F)c1`, the IC50 in assay [28] was 1.75 µM (active); in assay [29], 2.2 µM (active). For the same compound, the EC50 is 0.669 µM (active) in assay [2] and > 60 µM (not active) in assay [3]. For the same compound, the AC50 in [30] is 2.5 µM (active).

As for `Cn1c(-c2ccccc2)c(/C=N/NC(=O)c2ccc(O)cc2)c2ccccc21`, the IC50 in assay [16] and in assay [17] was > 67.5 µM (inactive) each time.
